From patent US10071998B2, “Iminothiadiazine dioxides bearing an amine-linked substituent as BACE inhibitors, compositions, and their use” (Merck Sharp & Dohme Corp., priority 2015, dated 2018)
Read-outs that look alike come from different tables or passages of the source.

Experiments:
[1] = biological target: Recombinant human soluble BACE-1 catalytic domain (Homo sapiens (Human), UniProt P56817); experiment: BACE-1 Ki Assay (BACE-1 HTRF FRET Assay); type: biochemical
Experimental: Assay 1: BACE-1 Ki Assay (BACE-1 HTRF FRET Assay)
The compounds of the invention were assessed for their ability to inhibit BACE-1 using the following assay.
The following reagents were used in this assay. Na^+-Acetate pH 5.0; 1% Brij-35; Glycerol; Dimethyl Sulfoxide (DMSO); Recombinant human soluble BACE-1 catalytic domain (>95% pure); APP Swedish mutant peptide substrate (QSY7-APP^swe-Eu): QSY7-EISEVNLDAEFC-Europium-amide.
A homogeneous time-resolved FRET assay can be used to determine IC50 values for inhibitors of the soluble human BACE-1 catalytic domain. This assay monitors the increase of 620 nm fluorescence that resulted from BACE-1 cleavage of an APPswedish APP^swe mutant peptide FRET substrate (QSY7-EISEVNLDAEFC-Europium-amide). This substrate contains an N-terminal QSY7 moiety that serves as a quencher of the C-terminal Europium fluorophore (620 nm Em). In the absence of enzyme activity, 620 nm fluorescence is low in the assay and increased linearly over 3 hours in the presence of uninhibited BACE-1 enzyme. Inhibition of BACE-1 cleavage of the QSY7-APP^swe-Eu substrate by inhibitors is manifested as a suppression of 620 nm fluorescence.
Varying concentrations of inhibitors at 3× the final desired concentration in a volume of 10 ul are preincubated with purified human BACE-1 catalytic domain (3 nM in 10 μl) for 30 minutes at 30° C. in reaction buffer containing 20 mM Na-Acetate pH 5.0, 10% glycerol, 0.1% Brij-35 and 7.5% DSMO. Reactions are initiated by addition of 10 μl of 600 nM QSY7-APP^swe-Eu substrate (200 nM final) to give a final reaction volume of 30 μl in a 384 well Nunc HTRF plate. The reactions are incubated at 30° C. for 1.5 hours. The 620 nm fluorescence is then read on a Rubystar HTRF plate reader (BMG Labtechnologies) using a […] delay followed by a 400 millisecond acquisition time window. Inhibitor IC50 values are derived from non-linear regression analysis of concentration response curves. Ki values are then calculated from IC50 values using the Cheng-Prusoff equation using a previously determined […] of 8 μM for the QSY7-APP^swe-Eu substrate at BACE-1. The example compounds of the invention were measured in this assay.

[2] = biological target: purified human autoBACE-2 (Homo sapiens (Human), UniProt Q9Y5Z0); experiment: BACE-2 Assay (BACE-HTRF assay); type: biochemical; conditions: Table 1; Ki calculated from IC50 with Cheng-Prusoff equation; read-out: BACE2 Ki
Sequence of purified human autoBACE-2 (Q9Y5Z0 63-473): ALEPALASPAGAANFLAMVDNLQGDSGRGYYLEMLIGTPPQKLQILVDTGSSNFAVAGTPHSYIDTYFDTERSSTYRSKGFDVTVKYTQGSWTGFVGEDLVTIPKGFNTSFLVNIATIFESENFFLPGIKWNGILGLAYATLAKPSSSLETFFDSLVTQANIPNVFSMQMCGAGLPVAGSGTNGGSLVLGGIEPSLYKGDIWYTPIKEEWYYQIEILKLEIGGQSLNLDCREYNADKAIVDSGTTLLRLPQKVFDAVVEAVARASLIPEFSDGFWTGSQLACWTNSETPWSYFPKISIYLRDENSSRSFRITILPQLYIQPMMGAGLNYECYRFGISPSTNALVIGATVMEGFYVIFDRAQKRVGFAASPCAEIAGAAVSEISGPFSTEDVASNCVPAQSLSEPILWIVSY
Experimental: Inhibitor IC50s, at purified human autoBACE-2 are determined in a time-resolved endpoint proteolysis assay that measures hydrolysis of the QSY7-EISEVNLDAEFC-Eu-amide FRET peptide substrate (BACE-HTRF assay). BACE-mediated hydrolysis of this peptide results in an increase in relative fluorescence (RFU) at 620 nm after excitation with 320 nm light. Inhibitor compounds, prepared at 3× the desired final concentration in 1× BACE assay buffer (20 mM sodium acetate pH 5.0, 10% glycerol, 0.1% Brij-35) supplemented with 7.5% DMSO are pre-incubated with an equal volume of autoBACE-2 enzyme diluted in 1×BACE assay buffer (final enzyme concentration 1 nM) in black 384-well NUNC plates for 30 minutes at 30° C. The assay is initiated by addition of an equal volume of the QSY7-EISEVNLDAEFC-Eu-amide substrate (200 nM final concentration, Km=8 μM […] for autoBACE-2) prepared in 1×BACE assay buffer supplemented with 7.5% DMSO and incubated for 90 minutes at 30° C. DMSO is present at 5% final concentration in the assay. Following laser excitation of sample wells at 320 nm, the fluorescence signal at 620 nm is collected for 400 ms following a 50 μs delay on a RUBYstar HTRF plate reader (BMG Labtechnologies). Raw RFU data is normalized to maximum (1.0 nM BACE/DMSO) and minimum (no enzyme/DMSO) RFU values. IC50 values are determined by nonlinear regression analysis (sigmoidal dose response, variable slope) of percent inhibition data with minimum and maximum values set to 0 and 100 percent respectively. Similar IC50s are obtained when using raw RFU data. The Ki values are calculated from the IC50 using the Cheng-Prusoff equation.

[3] = Table 3, comparator compounds of WO2011044181, read-out: BACE-1 Ki Nm
[4] = Table 1, Ki calculated from IC50 with Cheng-Prusoff equation, read-out: BACE1 Ki

Sequence of Recombinant human soluble BACE-1 catalytic domain (P56817 75-416): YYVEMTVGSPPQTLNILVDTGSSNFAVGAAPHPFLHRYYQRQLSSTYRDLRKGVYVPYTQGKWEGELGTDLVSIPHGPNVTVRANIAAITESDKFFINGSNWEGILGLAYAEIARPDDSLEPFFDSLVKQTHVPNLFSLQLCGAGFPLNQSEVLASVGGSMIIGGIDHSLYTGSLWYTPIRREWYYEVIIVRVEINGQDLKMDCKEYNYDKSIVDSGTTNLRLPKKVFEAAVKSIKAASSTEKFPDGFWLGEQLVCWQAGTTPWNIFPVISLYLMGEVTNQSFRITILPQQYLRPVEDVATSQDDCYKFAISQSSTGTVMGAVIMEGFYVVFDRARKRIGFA

Compound | Ki [1, 3] [nM] | Ki [2] [nM] | Ki [1, 4] [nM]
COc1ccccc1Nc1cccc([C@]2(C)CS(=O)(=O)N(C)C(=N)N2)n1 [162 (Scheme 40), reference compound] | 3760 |  | 
COc1ccccc1Nc1cc([C@]2(C)CS(=O)(=O)N(C)C(=N)N2)ccn1 [167 (Table XXI), reference compound] | 344 |  | 
COc1cnc2c(Nc3ccc(F)c([C@]4(C)CS(=O)(=O)N(C)C(=N)N4)c3)ncnc2n1 [Example 13, N-{4-fluoro-3-[(5R)-3-imino-2,5-dimethyl-1,1-dioxido-1,2,4-thiadiazinan-5-yl]phenyl}-7-methoxypteridin-4-amine] |  | 15.4 | 10.6
CN1C(=N)N[C@](C)(c2cc(Nc3cccc4c3OC(F)(F)O4)ccc2F)CS1(=O)=O [103 (Scheme 18), reference compound] | 42 |  | 
CN1C(=N)N[C@](C)(c2cccc(Nc3cccc4c3OC(F)(F)O4)n2)CS1(=O)=O [163 (Table XXI), reference compound] | 4700 |  | 
CN1C(=N)N[C@](C)(c2cc(N[C@H]3CCc4cc(Cl)ccc43)ccc2F)CS1(=O)=O [Example 17, (R)-5-(5-(((S)-5-chloro-2,3-dihydro-1H-inden-1-yl)amino)-2-fluorophenyl)-3-imino-2,5-dimethyl-1,2,4-thiadiazinane 1,1-dioxide] |  | 16.6 | 10.2
CN1C(=N)N[C@](C)(c2cc(N[C@@H]3CCc4ncc(Cl)cc43)ccc2F)CS1(=O)=O [Example 15, (R)-5-(5-(((R)-3-chloro-6,7-dihydro-5H-cyc1openta[b]pyridin-5-yl)amino)-2-fluorophenyl)-3-imino-2,5-dimethyl-1,2,4-thiadiazinane 1,1-dioxide] |  | 124 | 41.2
COc1cccnc1Nc1cccc([C@]2(C)CS(=O)(=O)N(C)C(=N)N2)n1 [165 (as listed on page 224), reference compound] | 2590 |  | 
CN1C(=N)N[C@](C)(c2cc(N[C@@H]3CCc4cc(C#N)cnc43)ccc2F)CS1(=O)=O [Example 19, (R)-7-((4-fluoro-3-((R)-3-imino-2,5-dimethyl-1,1-dioxido-1,2,4-thiadiazinan-5-yl)phenyl)amino)-6,7-dihydro-5H-cyclopenta[b]pyridine-3-carbonitrile] |  | 42.6 | 81
CN1C(=N)N[C@](C)(c2cc(Nc3nccc4cc(Br)cnc34)ccc2F)CS1(=O)=O [Example 2, 3-bromo-N-{4-fluoro-3-[(5R)-3-imino-2,5-dimethyl-1,1-dioxido-1,2,4-thiadiazinan-5-yl]phenyl}-1,7-naphthyridin-8-amine] |  | 0.38 | 1.5
COc1cnc2c(Nc3cc([C@]4(C)CS(=O)(=O)N(C)C(=N)N4)c(F)cn3)nccc2c1 [Example 5, N-{5-fluoro-4-[(5R)-3-imino-2,5-dimethyl-1,1-dioxido-1,2,4-thiadiazinan-5-yl]pyridin-2-yl}-3-methoxy-1,7-naphthyridin-8-amine] |  | 4.5 | 16.2
CN1C(=N)N[C@](C)(c2cc(N[C@@H]3CCc4ncc(C(F)(F)F)cc43)ccc2F)CS1(=O)=O [Example 16, (R)-5-(2-fluoro-5-(((R)-3-(trifluoromethyl)-6,7-dihydro-5H-cyclopenta[b]pyridin-5-yl)amino)phenyl)-3-imino-2,5-dimethyl-1,2,4-thiadiazinane 1,1-dioxide] |  | 242 | 57.3
CN1C(=N)N[C@](C)(c2cccc(Nc3ncccc3C#N)n2)CS1(=O)=O [164 (Table XXI), reference compound] | 508 |  | 
CN1C(=N)N[C@](C)(c2cc(Nc3ncnc4cc(Br)cnc34)ccc2F)CS1(=O)=O [Example 3, 7-bromo-N-{4-fluoro-3-[(5R)-3-imino-2,5-dimethyl-1,1-dioxido-1,2,4-thiadiazinan-5-yl]phenyl}pyrido[3,2-d]pyrimidin-4-amine] |  | 0.81 | 2.8
COc1cccnc1Nc1cc([C@]2(C)CS(=O)(=O)N(C)C(=N)N2)ccn1 [166 (Table XXI), reference compound] | 41 |  | 
CN1C(=N)N[C@](C)(c2cc(N[C@H]3CCCc4cc(Br)cnc43)ccc2F)CS1(=O)=O [Example 20, (R)-5-(5-(((S)-3-bromo-5,6,7,8-tetrahydroquinolin-8-yl)amino)-2-fluorophenyl)-3-imino-2,5-dimethyl-1,2,4-thiadiazinane 1,1-dioxide] |  | 43.1 | 128
COc1ccccc1Nc1cccc([C@]2(C)CS(=O)(=O)N(C)C(=N)N2)c1 [103a (Table IXa), reference compound] | 69 |  | 
CN1C(=N)N[C@](C)(c2cc(Nc3nccc4cc(Cl)cnc34)ccc2F)CS1(=O)=O [Example 1, 3-chloro-N-{4-fluoro-3-[(5R)-3-imino-2,5-dimethyl-1,1-dioxido-1,2,4-thiadiazinan-5-yl]phenyl}-1,7-naphthyridin-8-amine] |  | 0.22 | 1.2
CN1C(=N)N[C@](C)(c2cccc(Nc3ccccc3C#N)n2)CS1(=O)=O [103b (Table IXa), reference compound] | 514 |  | 
CN1C(=N)N[C@](C)(c2cc(N[C@H]3CCc4cc(C#N)cnc43)ccc2F)CS1(=O)=O [Example 18, (S)-7-((4-fluoro-3-((R)-3-imino-2,5-dimethyl-1,1-dioxido-1,2,4-thiadiazinan-5-yl)phenyl)amino)-6,7-dihydro-5H-cyclopenta[b]pyridine-3-carbonitrile] |  | 22.3 | 3.1
